Measured values reported in article PMC7582316, “Structural and Computational Insights into a Blebbistatin-Bound Myosin•ADP Complex with Characteristics of an ADP-Release Conformation along the Two-Step Myosin Power Stoke” (International Journal of Molecular Sciences, 2020).

Target: T1, Dd myosin-II motor domain (Dictyostelium discoideum, UniProt P08799)
T1 construct: gene mhcA; His6-tagged motor domain, amino acids 1–765 fused to a C-terminal SSB tag
Test: microscale thermophoresis (MST); also X-ray crystal structure with blebbistatin
Format: binding

T1 sequence (P08799 1-765): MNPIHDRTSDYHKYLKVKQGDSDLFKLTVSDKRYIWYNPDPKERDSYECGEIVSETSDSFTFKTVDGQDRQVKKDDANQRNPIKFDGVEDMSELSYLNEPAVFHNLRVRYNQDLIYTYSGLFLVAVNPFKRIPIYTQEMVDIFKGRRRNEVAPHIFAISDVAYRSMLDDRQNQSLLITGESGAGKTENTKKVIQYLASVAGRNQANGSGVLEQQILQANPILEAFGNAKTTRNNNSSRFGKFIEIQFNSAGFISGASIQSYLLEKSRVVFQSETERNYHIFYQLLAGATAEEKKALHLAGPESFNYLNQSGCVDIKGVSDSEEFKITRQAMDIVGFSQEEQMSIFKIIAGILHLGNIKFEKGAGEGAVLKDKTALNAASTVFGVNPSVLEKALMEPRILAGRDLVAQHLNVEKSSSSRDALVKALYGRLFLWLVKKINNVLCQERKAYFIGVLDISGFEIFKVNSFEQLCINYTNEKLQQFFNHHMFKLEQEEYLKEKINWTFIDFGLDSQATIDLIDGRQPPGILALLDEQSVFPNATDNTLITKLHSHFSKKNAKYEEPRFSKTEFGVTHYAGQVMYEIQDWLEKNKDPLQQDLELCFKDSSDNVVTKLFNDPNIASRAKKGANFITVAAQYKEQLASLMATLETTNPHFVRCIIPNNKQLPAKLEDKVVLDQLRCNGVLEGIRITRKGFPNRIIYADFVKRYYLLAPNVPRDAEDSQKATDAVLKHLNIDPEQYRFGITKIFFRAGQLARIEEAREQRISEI

`Nc1ncnc2c1ncn2[C@@H]1O[C@H](COP(=O)(O)OP(=O)(O)O)[C@@H](O)[C@H]1O` [ADP] was tested, and the Kd was 37.5 ± 7.3 µM.
